Measurements as given in patent US10844049B2, “GLP-1R agonists and uses thereof” (QILU REGOR THERAPEUTICS INC., priority 2018, dated 2020).

What follows are compounds tested against GLP1R (Homo sapiens, UniProt P43220) (assay: GLP1R cAMP HTRF assay, HEK293/GLP-1R/CRE/Luc (HEK293T cells)). Conditions: read-out: EC50.
Type: cell-based
In short: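 cAMP accumulation via HTRF after 30 min, 37 °C exposure of 1000 receptor-expressing cells/well to compound (0.5% DMSO final) in IBMX (500 μM)/0.1% BSA DPBS.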

GLP1R, sequence (P43220 24-463): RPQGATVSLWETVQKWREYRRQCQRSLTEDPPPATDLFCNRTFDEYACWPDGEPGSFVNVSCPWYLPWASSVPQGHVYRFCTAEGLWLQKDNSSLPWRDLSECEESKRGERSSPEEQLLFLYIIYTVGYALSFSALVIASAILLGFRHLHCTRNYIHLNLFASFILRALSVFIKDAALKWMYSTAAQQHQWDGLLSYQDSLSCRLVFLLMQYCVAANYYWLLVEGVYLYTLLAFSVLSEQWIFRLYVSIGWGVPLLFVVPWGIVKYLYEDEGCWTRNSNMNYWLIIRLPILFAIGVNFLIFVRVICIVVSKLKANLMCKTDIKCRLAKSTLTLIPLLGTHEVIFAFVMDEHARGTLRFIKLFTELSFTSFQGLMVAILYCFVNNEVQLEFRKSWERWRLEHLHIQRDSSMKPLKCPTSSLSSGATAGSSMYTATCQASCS

Row | Structure (SMILES) | EC50
1 | O=C(O)c1ccc2nc(CN3CC=C(c4cccc(OCc5ccc(Cl)cc5F)n4)CC3)n(C[C@@H]3CCO3)c2n1 [Compound 169, (S)-2-((6-((4-chloro-2-fluorobenzyl)oxy)-3′,6′-dihydro-[2,4′-bipyridin]-1′(2′H)-yl)methyl)-3-(oxetan-2-ylmethyl)-3H-imidazo[4,5-b]pyridine-5-carboxylic acid] | ≤ 15 nM
2 | O=C(O)c1ccc2nc(CN3CC=C(c4ncc(F)c(OCc5ccc(Cl)cc5F)n4)CC3)n(C[C@@H]3CCO3)c2c1 [Compound 123] | ≤ 15 nM
3 | O=C(O)c1ccc2nc(CN3CCC(c4ccc5ccn(Cc6ccc(Cl)cc6F)c5n4)CC3)n(C[C@@H]3CCO3)c2c1 [Compound 24, (S)-2-((4-(1-(4-chloro-2-fluorobenzyl)-1H-pyrrolo[2,3-b]pyridin-6-yl)piperidin-1-yl)methyl)-1-(oxetan-2-ylmethyl)-1H-benzo[d]imidazole-6-carboxylic add] | ≤ 150 nM
4 | O=C(O)c1ccc2nc(CN3CC=C(c4cccc(CCc5ccc(Cl)cc5F)n4)CC3)n(C[C@@H]3CCO3)c2c1 [Compound 113, (S)-2-((6-(4-chloro-2-fluorophenethyl)-3′,6′-dihydro-[2,4′-bipyridin]-1′(2′H)-yl)methyl)-1-(oxetan-2-ylmethyl)-1H-benzo[d]imidazole-6-carboxylic acid] | ≤ 150 nM
5 | O=C(O)c1ccc2nc(CN3CC4CC3CN4c3cccc(OCc4ccc(Cl)cc4F)n3)n(C[C@@H]3CCO3)c2c1 (stereo partly drawn) [Compound 16, 2-((5-(6-((4-chloro-2-fluorobenzyl)oxy)pyridin-2-yl)-2,5-diazabicyclo[2.2.1]heptan-2-yl)methyl)-1-(((S)-oxetan-2-yl)methyl)-1 h-benzo[d]imidazole-6-carboxylic acid] | ≤ 150 nM
6 | O=C(O)c1ccc2nc(CN3CC=C(c4ccnc(OCc5ccc(C#CC6CC6)cc5F)n4)CC3)n(C[C@@H]3CCO3)c2c1 [Compound 201, (S)-2-((4-(2-((4-(cyclopropylethynyl)-2-fluorobenzyl)oxy)pyrimidin-4-yl)-3,6-dihydropyridin-1(2H)-yl)methyl)-1-(oxetan-2-ylmethyl)-1H-benzo[d]imidazole-6-carboxylic acid] | ≤ 15 nM
7 | O=C(O)c1ccc2nc(CN3CCN(c4cc(F)c(F)c(OCc5ccc(Cl)cc5F)c4)CC3)n(C[C@@H]3CCO3)c2c1 [Compound 187, (S)-2-((4-(3-(4-chloro-2-fluorobenzyloxy)-4,5-difluorophenyl)piperazin-1-yl)methyl)-1-(oxetan-2-ylmethyl)-1H-benzo[d]imidazole-6-carboxylic acid] | ≤ 15 nM
8 | Cc1ncccc1COc1cccc(C2=CCN(Cc3nc4ccc(C(=O)O)cc4n3C[C@@H]3CCO3)CC2)n1 [Compound 161, (S)-2-((6-((2-methylpyridin-3-yl)methoxy)-3′,6′-dihydro-[2,4′-bipyridin]-1′(2′ H)-yl)methyl)-1-(oxetan-2-ylmethyl)-1H-benzo[d]imidazole-6-carboxylic acid] | ≤ 150 nM
9 | O=C(O)c1ccc2nc(CN3CC=C(c4cccc(OCc5ccc(C#CC6CC6)cc5F)c4)CC3)n(C[C@@H]3CCO3)c2c1 [Compound 199, (S)-2-((4-(3-((4-(cyclopropylethynyl)-2-fluorobenzyl)oxy)phenyl)-3,6-dihydropyridin-1(2H)-yl)methyl)-1-(oxetan-2-ylmethyl)-1H-benzo[d]imidazole-6-carboxylicacid] | ≤ 150 nM
10 | O=C(O)c1ccc2nc(CN3CC=C(c4ccc(F)c(OCc5ccc(C#CC6CC6)cc5F)c4)CC3)n(C[C@@H]3CCO3)c2c1 [Compound 202, (S)-2-((4-(3-((4-(cyclopropylethynyl)-2-fluorobenzyl)oxy)-4-fluorophenyl)-3,6-dihydropyridin-1(2H)-yl)methyl)-1-(oxetan-2-ylmethyl)-1H-benzo[d]imidazole-6-carboxylic acid] | ≤ 150 nM
11 | O=C(O)c1ccc2nc(CN3CCC(N4Cc5ccccc5N(CCc5ccc(Cl)cc5F)C4=O)CC3)n(C[C@@H]3CCO3)c2c1 [Compound 53, (S)-2-((4-(1-(4-chloro-2-fluorophenethyl)-2-oxo-1,4-dihydroquinazolin-3(2H)-yl)piperidin-1-yl)methyl)-1-(oxetan-2-ylmethyl)-1H-benzo[d]imidazole-6-carboxylic acid] | > 1000 nM
12 | O=C(O)c1ccc2nc(CN3CCN(c4cccc(OCc5ccc(Cl)cc5F)n4)CC3=O)n(C[C@@H]3CCO3)c2c1 [Compound 106, (S)-2-((4-(6-((4-chloro-2-fluorobenzyl)oxy)pyridin-2-yl)-2-oxopiperazin-1-yl)methyl)-1-(oxetan-2-ylmethyl)-1H-benzo[d]imidazole-6-carboxylic add] | ≤ 15 nM
13 | O=C(O)c1ccc2nc(CN3CCN(c4cccc(OCc5ccc(C(F)(F)F)cc5)c4)CC3)n(C[C@@H]3CCO3)c2c1 [Compound 189] | ≤ 150 nM
14 | N#Cc1ccc(COc2cc(C3=CCN(Cc4nc5ccc(C(=O)O)cc5n4C[C@@H]4CCO4)CC3)cc(F)c2F)c(F)c1 [Compound 205, (S)-2-((4-(3-(4-cyano-2-fluorobenzyloxy)-4,5-difluorophenyl)-5,6-dihydropyridin-1(2H)-yl)methyl)-1-(oxetan-2-ylmethyl)-1H-benzo[d]imidazole-6-carboxylic acid] | ≤ 150 nM
15 | O=C(O)c1ccc2cc(CN3CCN(c4cccc(OCc5ccc(Cl)cc5F)n4)CC3)n(C[C@@H]3CCO3)c2c1 [Compound 49, (S)-2-((4-(6-(4-chloro-2-fluorobenzyloxy)pyridin-2-yl)piperazin-1-yl)methyl)-1-(oxetan-2-ylmethyl)-1 h-indole-6-carboxylic acid] | > 1000 nM
16 | N#Cc1ccc(COc2ccnc(C3=CCN(Cc4nc5ccc(C(=O)O)cc5n4C[C@@H]4CCO4)CC3)n2)c(F)c1 [Compound 176, (S)-2-((4-(4-((4-cyano-2-fluorobenzyl)oxy)pyrimidin-2-yl)-3,6-dihydropyridin-1(2H)-yl)methyl)-1-(oxetan-2-ylmethyl)-1H-benzo[d]imidazole-6-carboxylic add] | ≤ 15 nM
17 | O=C(O)c1ccc2nc(CN3CC=C(c4cc(OCc5ccc(Cl)cc5F)ccn4)CC3)n(C[C@@H]3CCO3)c2c1 [Compound 30, (S)-2-((4-((4-chloro-2-fluorobenzyl)oxy)-3′,6′-dihydro-[2,4′-bipyridin]-1′(2′H)-yl)methyl)-1-(oxetan-2-ylmethyl)-1 h-benzo[d]imidazole-6-carboxylic add] | ≤ 150 nM
18 | O=C(O)c1ccc2nc(CN3CC=C(c4cccc(OCc5cnccn5)n4)CC3)n(C[C@@H]3CCO3)c2c1 [Compound 165, (S)-1-(oxetan-2-ylmethyl)-2-((6-(pyrazin-2-ylmethoxy)-3′,6′-dihydro-[2,4′-bipyridin]-1′(2′H)-yl)methyl)-1H-benzo[d]imidazole-6-carboxylic acid] | ≤ 1000 nM
19 | Cn1cnc2ccc(COc3cccc(C4=CCN(Cc5nc6ccc(C(=O)O)cc6n5C[C@@H]5CCO5)CC4)n3)cc21 [Compound 241, (S)-2-((6-((1-methyl-1H-benzo[d]imidazol-6-yl)methoxy)-3′,6′-dihydro-[2,4′-bipyridin]-(2′H)-yl)methyl)-1-(oxetan-2-ylmethyl)-1H-benzo[d]imidazole-6-carboxylic add] | ≤ 150 nM
20 | O=C(O)c1ccc2nc(CN3CC=C(c4cccc(OCc5ccc(F)cc5)n4)CC3)n(C[C@@H]3CCO3)c2c1 [Compound 157, (S)-2-((6-((4-fluorobenzyl)oxy)-3′,6′-dihydro-[2H′-bipyridin]-1′(2′H)-yl)methyl)-1-(oxetan-2-ylmethyl)-1H-benzo[d]imidazole-6-carboxylic acid] | ≤ 15 nM
